Test results taken from patent publication US20230181673A1, “TRI-PEPTIDES AND TREATMENT OF METABOLIC, CARDIOVASCULAR AND INFLAMMATORY DISORDERS” (Diapin Therapeutics, LLC, priority 2018, published 2023).
Non-standard residues stand in square brackets, D forms with d. No end group written: not given here.

Tests used:
SMAD2 = conditions: NASH-diet, liver
Protocol: Liver samples were lysed in radioimmunoprecipitation assay lysis buffer (RIPA buffer, Thermo Scientific) supplemented with a protease/phosphatase inhibitor cocktail (Roche Applied Science). Proteins were resolved in 10% sodium dodecyl sulfate polyacrylamide gel electrophoresis (SDS-PAGE) and transferred to nitrocellulose membranes (Bio-Rad). The membranes were blocked for 1 h at room temperature in tris-buffered saline-Tween 20 (TBST) containing 5% fat-free milk and incubated with primary antibody at 4° C. overnight. The following primary antibodies were used: AGXT1 (Santa Cruz Biotechnology sa-517388, 1:500), HADHA (Proteintech 10758-1-AP, 1:1000), ACAA2 (ABcional A15778, 1:500), phospho-SMAD2 (Ser485/487, Cell Signaling, #3108S; 1:1000), SMAD2 (Cell Signaling Technology, #5339S; 1:1000), GAPDH (Santa Cruz Biotechnology so-365062; 1:2000), or β-Actin (Cell Signaling Technology #3700). The membranes were washed with TBST before incubated with IRDye-conjugated secondary antibodies (LI-COR Biosciences, 1:10000) at room temperature for 1 h. After TBST washing, bands were visualized and quantified using an Odyssey Infrared Imaging System (LI-COR Biosciences, version 2.1).

gut microbiota = conditions: mice with established NASH
Protocol: Total genomic DNA of the gut microbiota was extracted from fecal samples using the QIAamp DNA Stool Mini Kit (51540, Qiagen) according to the manufacturer's instructions. DNA was prepared for community analysis as previously described.17 Briefly, barcoded dual-index primers specific to the V4 region of the 16S rRNA gene were used to amplify the DNA.18 PCR reactions were composed of 5 μL of 4 μM equimolar primer set, 0.15 μL of AccuPrime Taq DNA High Fidelity Polymerase, 2 μL of 10×AccuPrime PCR Buffer II (Thermo Fisher Scientific 12346094), 11.85 μL of PCR-grade water, and 1 μL of DNA template. […] The normalized reactions were pooled and quantified using the Kapa Biosystems Library qPCR MasterMix (ROX Low) Quantification kit for Illumina platforms (KK4873). […]
DNA sequencing data was processed using Mothur according to SOP and focused primarily on α- and β-diversity based analyses. […] Constrained ordination RDA (redundancy analysis) was calculated, and the significance of environmental variables was checked by forward selection analysis. […] The principal component analysis (PCA) was plotted accordingly using Phyloseq package in R. The correlations between changes in the altered bacterial genera and NAFLD-related parameters in the liver or plasma were calculated using nonparametric Spearman's test.

[1] = NASH-diet
Protocol: Body composition was assessed using nuclear magnetic resonance (NMR)-based analyzer (Minispec LF90II; Bruker Optics) at the U-M Animal Phenotyping Core. Oxygen consumption (VO2), carbon dioxide production (VCO2) and motor activity were measured using CLAMS (Columbus Instruments). Respiratory exchange ratio (RER) Is VCO2/VO2.
All measurements were performed by the University of Michigan Animal Phenotyping Core. Body fat, lean body mass, and free fluids were measured using a nuclear magnetic resonance (NMR)-based analyzer (Minispec LF90II; Bruker Optics). The analyzer is daily checked using a reference sample as recommended by the manufacture. The mice were placed individually into the measuring tube with minimum restrain. Oxygen consumption (VO2), carbon dioxide production (VCO2) and motor activity were measured using CLAMS (Columbus Instruments), an integrated open-circuit calorimeter equipped with an optical beam activity monitoring device. Mice were weighed before the measurements and individually placed into the sealed chambers (7.9″×4″×5″) with free access to food and water. The study was carried out in an experimentation room set at 20-23° C. with 12-12 h dark-light cycles (6:00 PM-6:00 AM). Measurements were carried out continuously for 48 h. During this time, animals were provided with food and water through the feeding and drinking devices located inside the chamber. VO2 and VCO2 in each chamber were sampled sequentially for 5 s in 10 min intervals and the motor activity was recorded every second in X and Z dimensions. The air flow rate through the chambers was adjusted to keep the oxygen differential around 0.3% at resting conditions. Respiratory exchange ratio (RER) was calculated as VCO2/VO2. Total energy expenditure, glucose oxidation and fat oxidation were calculated based on the values of VO2, VCO2, and the protein breakdown.

[2] = tested on: adipose tissue gene expression; experiment: qPCR of inflammatory cytokines in epididymal and subcutaneous adipose tissue of WD-fed apoE−/− mice; assay type: in vivo; conditions: endpoint
Excerpt: (§1) Eight-week-old male apolipoprotein E-deficient (apoE−/−) mice (B6.129P2-Apoetm1Unc/J, Stock No.: 002052) were obtained from Jackson Laboratories. Mice were fed Western diet (WD, 42% of calories from fat and 0.2% cholesterol by weight, Envigo TD.88137). After one week of WD feeding, blood was carefully collected from the facial vein to determine baseline plasma levels of total cholesterol (TC). […] All mice were maintained on a 12-hour light/dark cycle and had ad libitum access to food and water. Body weight and food intake were measured every one and three weeks, respectively
Total RNA from liver or adipose tissue samples was extracted using QIAGEN's RNeasy kits (QIAGEN). RNA was reverse-transcribed into cDNA with SuperScript III and random primers (Invitrogen). Specific transcript levels were assessed by a real-time PCR system (Bio-Rad) using IQ SYBR Green Supermix (Bio-Rad) and the ΔΔCt threshold cycle method of normalization. Gene expression levels were normalized to glyceraldehyde 3-phosphate dehydrogenase (GAPDH). Primer pairs used for qPCR were obtained from Integrated DNA Technologies and are listed below: […]

[3] = tested on: plasma lipids, adipokines and cytokines; experiment: Plasma lipids, adipokines and cytokines in WD-fed apoE−/− mice; assay type: in vivo; conditions: for Time-dependent increase in plasma TC (baseline to endpoint): 1 week WD baseline vs 12 weeks of treatment; for Endpoint plasma HDL / Endpoint plasma LDL, reduced by / Endpoint plasma TC, reduced by: 6 hour fast; for Endpoint plasma HDL / Endpoint plasma LDL, reduced by / Endpoint plasma TC, reduced by / Plasma levels of glycine-containing tripeptide molecule, lower by: vs WD+H2O; for Plasma levels of glycine-containing tripeptide molecule, lower by: 12 weeks, glycine 0.67, DT-109/DT-110 1 mg/g; for Plasma HDL (lipid profile): endpoint (FIG. 15I); for Plasma glycine-containing tripeptide molecule: endpoint (FIG. 15K)
Excerpt: as §1
Plasma levels of glycine tripeptide molecule, resistin, interleukin-6 (IL-6) and monocyte chemoattractant protein-1 (MCP1) were measured with a Luminex 200 chemistry analyzer (Luminex Corporation) at the Chemistry Laboratory of the MDRC using manufacturer-provided assay reagents and protocols (Millipore Multiplex, MMHMAG-44K). […]

diet-induced NASH = assay type: in vivo, mice; conditions: for NASH-diet-induced hepatomegaly and yellowish coloration: leucine 0.17, glycine 0.33, DT-109 0.125 or 0.5 mg/g/day
blood glucose [4] = experiment: OGTT in C57BL/6J mice given glucose with glycine-based compounds; assay type: in vivo
Protocol: OGTT were performed in C57BL/6J mice after 12 h fasting (n=6-8).
OGTT were performed after 12 h fasting. […] Blood glucose concentrations were measured using a blood glucometer and test strips (Contour Next).

ABCG8 = experiment: Western blot of hepatic ABCG8 in WD-fed apoE−/− mice; assay type: in vivo; conditions: normalized to β-Actin
Excerpt: as §1
The following primary antibodies were used: rabbit polyclonal anti-ABCG8 (Santa Cruz Biotechnology, sc-30111, working dilution 1:1000) and rabbit polyclonal anti-β-Actin (Cell signaling, 4967S, working dilution 1:3000). After TBST washing, membranes were incubated with secondary antibodies (LI-COR Biotechnology, donkey anti-rabbit IRDye 926-32213, 926-88073, working dilution 1:10000) for 1 hour at room temperature.

hepatic gene expression = assay type: in vivo, mice; conditions: NASH-diet, liver
Protocol: Total RNA from mouse liver samples was extracted using QIAGEN's RNeasy kits (QIAGEN). RNA was reverse-transcribed into cDNA with SuperScript III and random primers (Invitrogen). Specific transcript levels were assessed by a real-time PCR system (Bio-Rad) using IQ SYBR Green Supermix (Bio-Rad) and the ΔΔCt threshold cycle method of normalization. Gene expression levels were normalized to glycerldehyde 3-phosphate dehydrogenase (GAPDH).
Mice fed CD and administered H2O served as control.

blood glucose [5] = conditions: previous studies from the applicant's lab; cited from earlier work
plasma glucose = conditions: humans, glycine ingested together with glucose; cited from earlier work
[6] = sucrose-fed rats; cited from earlier work
[7] = tested on: hemoglobin-A1c and plasma TNFR1; conditions: T2D patients, 5 g/day for 3 months; cited from earlier work
[8] = obese C57BL/6 mice, chronic glycine supplementation 1 mg/g/day; cited from earlier work
circulating TG = conditions: apoE−/− mice, chronic glycine supplementation 1 mg/g/day; cited from earlier work
[9] = KK-Ay mice, dietary glycine; cited from earlier work
[10] = 0.5 mg/g/day DT-109, compared to the H2O controls

Row | Compound | MCP1 expression in EAT and SAT [2] | Time-dependent increase in plasma TC (baseline to endpoint) [3] | Endpoint plasma HDL [3] | Endpoint plasma LDL, reduced by [3] | Endpoint plasma TC, reduced by [3] | Plasma levels of glycine-containing tripeptide molecule, lower by ([3]; apoE−/− mice on WD) | Plasma HDL (lipid profile) ([3]; apoE−/− mice on WD) | Plasma glycine-containing tripeptide molecule ([3]; apoE−/− mice on WD) | Plasma MCP1 levels ([3]; endpoint) | F4/80 immunostaining in liver (diet-induced NASH; endpoint, NASH-diet) | NASH-diet-induced hepatic fibrosis (Sirius Red and fibrosis scoring) (diet-induced NASH; endpoint, NASH-diet) | NASH-diet-induced hepatomegaly and yellowish coloration (diet-induced NASH; endpoint) | ABCG8 protein in liver (Western blot) (ABCG8) | NFKB2, RELB and TNFα expression (qPCR) (hepatic gene expression) | TGFβ-related genes (qPCR) (hepatic gene expression) | other results
1 | Gly-Gly-Leu [DT-109] | significantly suppressed | significantly attenuated | preserved | 38% | 25% | 62% | without the reduction in HDL | reduced | significantly reduced | attenuated | protective effects | markedly attenuated | Overexpression | significantly downregulated | attenuated | SMAD2 Ser465/467 phosphorylation (SMAD2): reduced SMAD2 Ser465/467 phosphorylation; Bacterial genus Alistipes in gut microbiota (gut microbiota): increased; Bacterial genus Clostridium sensu stricto in gut microbiota (gut microbiota): decreased; Body fat [1, 10]: reduced body fat; Lean mass [1, 10]: preserved lean mass; Respiratory exchange ratio (RER) ([1]; CLAMS weeks 22-23, DT-109 at 0.5 mg/g/day): no significant differences; Plasma TC and LDL (lipid profile) ([3]; apoE−/− mice on WD, DT-109 1 mg/g/day, endpoint): lowest TC and LDL; Adipocyte hypertrophy in EAT and SAT (diet-induced NASH; NASH-diet, 0.5 mg/g/day DT-109): decreased adipocyte hypertrophy; NAS (diet-induced NASH; endpoint, 0.5 mg/g/day DT-109): significantly decreased; Glucose-lowering effect in OGTT compared with glycine (blood glucose [4]; 12 h fasting, glucose 2 mg/g with 0.5 mg/g compound, oral): lowered glucose more efficiently than glycine; Glucose-lowering effect in OGTT compared with equivalent levels of free leucine or glycine (blood glucose [4]; DT-109 0.5 mg/g vs leucine 0.17 or glycine 0.33 mg/g): particularly when compared to equivalent levels of its individual AA; CCL2, CCR2 and CCR5 expression (qPCR) (hepatic gene expression; 0.5 mg/g/day DT-109): downregulated; Glucose-lowering effects (previous studies) (blood glucose [5]): profound glucose-lowering effects
2 | Gly-Gly-[dL] [DT-110] | significantly suppressed |  |  |  |  | 56% |  |  | significantly reduced |  |  |  | Overexpression |  |  | TNFα expression in EAT [2]: most significant effects
3 | CC(C)C[C@H](N)C(=O)O [leucine] |  |  |  |  |  |  |  |  |  | significantly increased | but not leucine |  |  |  | markedly upregulated | 
4 | NCC(=O)O [glycine, reference compound] | significantly suppressed | significantly attenuated | 35% | 30% | 19% | 53% | reduction in HDL | reduced | significantly reduced | attenuated | protective effects | markedly attenuated | Overexpression | significantly downregulated |  | Attenuation of the increase in plasma glucose (plasma glucose): > 50%; Intra-abdominal fat, plasma TG and FAO markers in hepatic mitochondria [6]: reduced intra-abdominal fat, plasma TG and increased FAO markers in hepatic mitochondria; Hemoglobin-A1c and plasma TNFR1 [7]: reduced hemoglobin-A1c and plasma TNFR1; Glucose tolerance and fat loss [8]: restore glucose tolerance and accelerate fat loss; Circulating TG (circulating TG): reduce circulating TG; Glucose tolerance, circulating TG, ALT, HS and inflammatory infiltration [9]: improved glucose tolerance, lowered circulating TG and alanine-aminotransferase (ALT), while attenuating HS and inflammatory infiltration
